Experimental data from publication PMC12797497, “Si-Ni-San improves the deposition of lipid droplets in MAFLD through modulating the FXR-GPAT4 axis” (Chinese Medicine, 2026).
“Also recorded” adds a separate entry of the source.

Columns and labels:
FXR protein = target: T1, FXR protein (Homo sapiens, UniProt Q96RI1); experiment: Surface plasmon resonance (SPR), FXR immobilized on CM5 chip; assay type: binding; details: SPR steady-state affinity fit
T1 sequence (Q96RI1 1-486): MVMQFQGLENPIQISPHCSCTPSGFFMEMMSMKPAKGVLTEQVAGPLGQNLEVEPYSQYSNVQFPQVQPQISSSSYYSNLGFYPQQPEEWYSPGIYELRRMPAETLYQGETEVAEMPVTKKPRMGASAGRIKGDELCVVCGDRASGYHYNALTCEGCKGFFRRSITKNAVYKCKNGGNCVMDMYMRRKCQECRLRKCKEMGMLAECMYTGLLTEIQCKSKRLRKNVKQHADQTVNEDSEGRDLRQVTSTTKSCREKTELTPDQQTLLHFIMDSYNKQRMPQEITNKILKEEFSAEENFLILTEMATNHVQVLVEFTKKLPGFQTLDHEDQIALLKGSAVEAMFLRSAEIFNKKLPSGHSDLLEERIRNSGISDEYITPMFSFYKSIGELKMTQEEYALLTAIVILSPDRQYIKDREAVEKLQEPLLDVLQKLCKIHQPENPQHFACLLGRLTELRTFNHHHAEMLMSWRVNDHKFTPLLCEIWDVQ
Description: SPR analysis was performed by a Biacore S200 system (Cytiva, USA) equipped with a CM5 sensor chip. The FXR protein was immobilized on the chip via the standard amine coupling protocol, with the protein dissolved in a sodium acetate buffer at pH 4.5 and a concentration of 10 mM. […] Equilibrium dissociation constants (KD) were determined by fitting the response curves using the steady-state affinity model available in the Biacore S200 Evaluation Software.

[1] = system: T2DM and high-risk obese individuals; details: cited from earlier work
NASH = system: NASH; set-up: method as in PMID 38324483; details: MAESTRO-NASH Phase III trial; cited from earlier work
FXR [2] = experiment: FXR protein expression in liver and colon of MAFLD mice (western blot, IHC); assay type: in vivo, C57BL/6N mice
Description: (§1) A standard diet was fed to the NC group, while HFD (D12451, Huanyu Hekang Biotechnology, China) was fed to the other four groups for 12 weeks. […] During this period, mice in the NC group and HFD group were given isovolumetric distilled water respectively.
(§2) Total protein was extracted using a protein extraction kit (PC201Plus, Epizyme). Then, the protein concentration was measured using a BCA kit (PC0020, Solarbio). The 50 μg of the total protein samples were loaded onto an SDS-PAGE gel. Following electrophoresis, the protein was transferred into polyvinylidene fluoride (PVDF) membranes. Whereafter, the membranes were first blocked with 5% nonfat dry milk in TBST and incubated with primary antibodies against FXR (bs-12867R, Bioss, 1:1000), GPAT4 (bs-15587R, Bioss, China, 1:1000), P62 (380612-50, Zenbio, China, 1:1000), HSL (344379-50, Zenbio, China, 1:1000), MAGL (PAD223Hu01, Cloud-Clone Corp, China, 1:1000), Beclin1 (BS-1353R, Bioss, China, 1:1000), ATGL (R389129-50, Bioss, China, 1:1000), LC3Ⅰ/Ⅱ (ABC929, Merck, USA, 1:1000), β-actin (bs-0061R, Bioss, China, 1:5000) and GAPDH (GB11002-100, Servicebio, China, 1:5000). After 12 h of incubation at 4 °C, the blots were proceeded with HRP-conjugated secondary antibody. Finally, the immune bands were detected using an ECL detection kit (sb-wb012, Shanghai Shenger Biotechnology Co., Ltd, China). The average gray value was quantified using Image J software.
The paraffin sections of liver were performed dewaxing followed by antigen retrieval, then add FXR primary antibody (bs-12867R, Bioss, 1:200) and GPAT4 primary antibody (bs-1924R, Bioss, 1:200), and incubate overnight at 4 °C. After the diaminobenzidine (DAB) enhanced staining, the sections were mounted with neutral gum. Finally, the images were observed and captured via a Leica DM4000B light microscope (Germany).

LDAH = LDAH protein level in liver of MAFLD mice (western blot); assay type: in vivo, C57BL/6N mice; details: vs HFD group
GPAT4 [3] = experiment: GPAT4 protein expression in liver of MAFLD mice (western blot, IHC); assay type: in vivo, C57BL/6N mice; details: vs HFD group
Description: as §1
as §2, with “After 12 h of incubation at 4 °C, the blots were proceeded with HRP-conjugated secondary antibody.” left out, “software. […]” for “software.”

GPAT4 [4] = experiment: GPAT4 expression in oleic acid-induced HepG2 cells (western blot); assay type: cell-based, human; details: HepG2, OA 24 h; 15% SNS-containing serum or OCA 1 μM
Description: (§3) The HepG2 cell line was purchased from the American Type Culture Collection (Manassas, USA) and cultured in RPMI 1640 medium (Solarbio, China) with 10% fetal bovine serum (Gibco, USA) in an atmosphere with 5% CO2 and 100% humidity at 37 ℃. Oleic acid (OA) was purchased from Shanghai Macklin Biochemical Co., Ltd. (C11391320, Macklin, China). […] Cells were inoculated into 6-well plates and 96-well plates and treated with OA solution and SNS/NS-containing serum for 24 h.
(§4) Total protein was extracted using a protein extraction kit (PC201Plus, Epizyme). Then, the protein concentration was measured using a BCA kit (PC0020, Solarbio). The 50 μg of the total protein samples were loaded onto an SDS-PAGE gel. Following electrophoresis, the protein was transferred into polyvinylidene fluoride (PVDF) membranes. […] Finally, the immune bands were detected using an ECL detection kit (sb-wb012, Shanghai Shenger Biotechnology Co., Ltd, China). The average gray value was quantified using Image J software.

FXR [5] = experiment: FXR expression in oleic acid-induced HepG2 cells (western blot); assay type: cell-based, human; details: HepG2, OA 24 h; 15% SNS-containing serum or OCA 1 μM
Description: as §3, §4

[6] = system: oleic acid-induced HepG2 cells; experiment: ORO staining of lipid droplets in oleic acid-induced HepG2 cells; assay type: cell-based, human; details: HepG2, OA 24 h; 15% SNS-containing serum vs NS serum, or OCA 1 μM
Description: as §3
In vitro, the HepG2 cell cells were firstly seeded in 6-well plates (3 × 10^5 cells/well). After the cells were washed with PBS, ORO fixative was added to each well for 20–30 min, and 60% isopropyl alcohol was added to each well for 5 min. Then, ORO staining solution was used to stain the cells for 10–20 min. After the cells were washed with PBS, hematoxylin staining solution was used to re-stain the nucleus. Then, we added ORO buffer for 1 min. Finally, we used glycerin gelatin to seal the tablets. The changes in LDs were measured with Image Pro Plus v6.0 software (Media Cybemetic, USA).

MAFLD mice = experiment: HFD-induced MAFLD mouse model: body/liver weight, histology, serum biochemistry, hepatic TBA; assay type: in vivo, C57BL/6N mice; details: SNS 5.2 g/kg/d or OCA 10 mg/kg/d orally for 2 weeks
Excerpt: as §1
Serum samples were collected to measure the content of TG, total cholesterol (TC), alanine aminotransferase (ALT), aspartate aminotransferase (AST), high-density lipoprotein cholesterol (HDL-C), and low-density lipoprotein cholesterol (LDL-C). The Reado/Changchun Huili kit was used for the assay, measured by a fully automatic biochemistry analyzer.
The TBA content in liver tissue was detected by a TBA assay kit (E003-2-1, Nanjing Jiancheng Bioengineering Institute, China). According to the kit instruction manual, the liver tissues were subjected to lysis, after which the supernatant was collected and added to a 96-well plate. Blank controls and standard controls were set up. Subsequently, 180 μL of Reagent 1 was added, followed by gentle shaking to mix thoroughly, and incubation at 37 °C for 5 min. After that, 60 μL of Reagent 2 was added, mixed well by gentle shaking, and incubated at 37 °C for 1 min. The absorbance (A0) was measured at a wavelength of 405 nm using a microplate reader. Another incubation at 37 °C for 3 min was conducted, and then the absorbance (A1) was measured again. The ΔA value was calculated as ΔA = A1−A0, which represents the TBA content in the liver tissues.
Liver tissue from each group of mice was fixed in 4% formalin, embedded in paraffin, and prepared as paraffin tissue sections with a thickness of 5 μm. The sections were dewaxed and rehydrated, subsequently subjected to H&E staining, and finally examined under a microscope (Leica DM2500, Germany) for the observation of LDs.
Lipid accumulation in vivo was assessed by oil red O (ORO) staining (G1261, Solarbio, China). For liver tissue, frozen tissue sections were prepared at a thickness of 10 μm. After fixation in formalin, the sections were washed in 60% isopropanol and then stained with freshly prepared ORO working solution for 15 min. Following rinsing with 60% isopropanol, the sections were examined under a microscope.

[7] = system: HSL, ATGL, MAGL, P62, Beclin1, LC3Ⅰ/Ⅱ; experiment: Lipolysis- and lipophagy-related protein expression in liver of MAFLD mice (western blot); assay type: in vivo, C57BL/6N mice; details: vs HFD group
Description: as §1, §2

## COc1ccc(-c2cc(=O)c3c(OC)c(OC)c(OC)c(OC)c3o2)cc1OC [Nobiletin]
FXR protein
  Rmax: 210.1 RU

## Semaglutide
[1]; SUSTAIN 6 and SELECT, T2DM and high-risk obese individuals
  reduction in major adverse cardiovascular events: 18–20%
[1]
  weight loss: at least 10%
[1]; human, in vivo
  safety profile: common gastrointestinal reactions and infrequent serious adverse events

## CC(C)c1cc(Oc2c(Cl)cc(-n3nc(C#N)c(=O)[nH]c3=O)cc2Cl)n[nH]c1=O [Resmetirom]
NASH
  LDL-C decrease: 13–16%
  NASH resolution: 26–30%
  fibrosis improvement: 24–26%
  tolerability / adverse events: well-tolerated, with primarily mild diarrhea and nausea, and a serious adverse event rate comparable to placebo

## O=C1C[C@@H](c2ccc(O[C@@H]3O[C@H](CO)[C@@H](O)[C@H](O)[C@H]3O)cc2)Oc2cc(O)ccc21 [Liquiritin]
FXR protein
  Rmax: 12.1 RU

## COc1cc(-c2oc3cc(O)cc(O)c3c(=O)c2O)ccc1O [Isorhamnetin]
FXR protein
  Rmax: 20.3 RU

## CC[C@H]1[C@@H](O)[C@@H]2[C@H](CC[C@]3(C)[C@@H]([C@H](C)CCC(=O)O)CC[C@@H]23)[C@@]2(C)CC[C@@H](O)C[C@@H]12 [OCA, Obeticholic acid]
FXR [2]; IHC, liver
  positive localization of FXR in liver tissues: increased the positive localization of FXR in liver tissues
FXR [2]; western blot, colon, vs HFD group
  FXR expression in the colon: elevated colonic FXR expression
FXR [2]; western blot, liver, vs HFD group
  hepatic FXR expression: activated its expression; also recorded: activated FXR
LDAH
  protein level of LDAH: downregulated LDAH
GPAT4 [3]; IHC
  positive localization of GPAT4 in liver tissues: reduced the positive localization of GPAT4 in liver tissues
GPAT4 [3]; western blot
  GPAT4 expression in liver: inhibited GPAT4 expressions
GPAT4 [4]
  GPAT4 expression in cells: inhibited GPAT4 expression in cells
FXR [5]
  FXR expression in cells: increased FXR expression
FXR protein
  Rmax: 32.0 RU
[6]
  intracellular LDs accumulation (ORO staining): reduced LDs deposition in cells
MAFLD mice
  liver coefficient (liver weight/body weight): restored to normal levels
MAFLD mice; vs HFD group
  body weight at week 12: significantly decreased body weight
  hepatic TBA level: reduced TBA levels
  liver LDs deposition (H&E and ORO staining): significantly reduced LDs compared to the HFD group
  liver weight: significant reduction in liver weights
  serum ALT: effectively reduced liver injury induced by HFD
  serum AST: effectively reduced liver injury induced by HFD
  serum LDL-C: reduced following SNS and OCA treatment
  serum TC: reduced following SNS and OCA treatment
  serum TG: reduced following SNS and OCA treatment
[7]
  ATGL expression: increased HSL and ATGL expression
  Beclin1 expression: activated Beclin1
  HSL expression: increased HSL and ATGL expression
  MAGL expression: decreased MAGL expression
  P62 expression: suppressed P62 expression

## COc1ccc([C@@H]2CC(=O)c3c(O)cc(O[C@@H]4O[C@H](CO[C@@H]5O[C@@H](C)[C@H](O)[C@@H](O)[C@H]5O)[C@@H](O)[C@H](O)[C@H]4O)cc3O2)cc1O [Hesperidin]
FXR protein
  Rmax: 49.9 RU

## COc1ccc([C@@H]2CC(=O)c3c(O)cc(O[C@@H]4O[C@H](CO)[C@@H](O)[C@H](O)[C@H]4O[C@@H]4O[C@@H](C)[C@H](O)[C@@H](O)[C@H]4O)cc3O2)cc1O [Neohesperidin]
FXR protein
  Rmax: 181.5 RU
